Experiments:
[1] = tested on: Renal cancer cell line ACHN cell; assay: Growth inhibitory effect against cancer cell lines (3H-thymidine uptake), ACHN; type: cell-based; conditions: Homo sapiens, ACHN
How it was run: (§1)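 Cells seeded at 1.0×10^4/well, grown 24 hrs, then exposed to compound in DMSO for 18 hrs before 6 hrs pulse with ^3H-thymidine (0.25 μCi/well). Harvested cell-incorporated radioactivity counted; IC50 is the concentration halving uptake versus DMSO control, triplicate.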

[2] = tested on: colorectal cancer cell line HT-29 cells; assay: Growth inhibitory effect against cancer cell lines (3H-thymidine uptake), HT-29; type: cell-based; conditions: Homo sapiens, HT-29, inhibition of 3H-thymidine uptake; test substance 18 hrs, then 3H-thymidine 6 hrs; triplicate
How it was run: as §1

HT-29 cells = assay: Evaluation on the nude-mouse xenograft model; type: in vivo, mouse (Balb/c-nu/nu); conditions: HT-29, po, 240 h, 30 mg/kg orally twice a day for 10 days, tumor volume, treated vs vehicle group, n=6-8, read-out: T/C(%)
Procedure: HT-29 cells (5.0×10^6 cells/100 μL/head, suspended in HBSS (Hanks' solution)) in the logarithmic growth phase were implanted in a mouse (Balb/c-nu/nu) at the right lateral abdomen under ether anesthesia. After 5 days of implantation, the long diameter and short diameter of the tumor were measured, and the mice were divided into groups such that each group has an equivalent average tumor volume. For grouping, a grouping soft (general grouping system (Visions) was used. From the next day of the grouping, a test substance suspended in 0.5% MC (methyl cellulose) was repeatedly orally administered twice a day for 10 days (30 mg/kg). The tumor volume was measured twice a week and used as an index of antitumor activity. As a control, 0.5% MC was used and the test was performed with n=6-8.
The index (T/C (%)) of the antitumor activity was calculated according to the following formula.
T/C(%)=(The average tumor volume of the group treated with a test substance)/(The average tumor volume of the Vehicle group)×100
The tumor volume was calculated according to the following formula.
Tumor volume(mm^3)=L×W×W/2
(L: long diameter (mm) of tumor, W: short diameter (mm) of tumor)

TNF-α or IL-6 = assay: Evaluation on inflammatory cytokine production (LPS-stimulated PBMC); type: cell-based; conditions: human PBMC stimulated with LPS
p15 protein = assay: Evaluation of p15 induction activity (Western blotting); type: cell-based; conditions: test substance 0.1 μM, 24 hrs, ACHN cells or HT-29 cells, compared to DMSO, n=2
How it was run: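 p15 protein quantified by densitometry of anti-p15 Western blots (10 μg protein per lane, mean of n=2). Samples came from HT-29 or ACHN cells given 0.1 μM compound for 24 h after 24 h plating, with DMSO as control.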

[3] = tested on: ACHN cells or HT-29 cells; assay: Cell cycle analysis (flow cytometry, CycleTEST PLUS); type: cell-based; conditions: test substance less than 10 μM, 24 hrs, compared to DMSO, n=2, read-out: CELL RATIO OF G0/G1 PHASE
Procedure: ACHN cells or HT-29 cells were cultured in a 6 well plate at 2.5×10^5 cells/1.8 mL/well for 24 hrs, then a test substance (less than 10 μM) dissolved in DMSO was added. After 24 hrs, cells were detached using trypsin-EDTA and the DNA content of single cell was analyzed by flow cytometry method using a CycleTEST PLUS (BECKTON DICKINSON) kit, and the proportion of the cells in the G0/G1 phase·S phase·G2/M phase was calculated. As a control, DMSO was used and the test was performed with n=2.

p27 protein = p27 protein induction test (Western blotting); type: cell-based; conditions: test substance (0.1 1M), 24 hrs, ACHN cells or HT-29 cells, compared to DMSO, n=2
How it was run: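 ACHN or HT-29 cells grown 24 h, then treated with test substance at […] (DMSO) for 24 h. Lysates normalised by protein content and probed by Western blot with anti-p27 antibody. Band density quantified by densitometer against DMSO control, n=2 averaged.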

B-Raf and MEK1 = B-Raf and MEK1 (Homo sapiens, UniProt Q02750); assay: MEK enzyme inhibitory activity, B-Raf and MEK1 system; type: biochemical; conditions: 30° C., 20 min, [γ-32P]-ATP; average of two or three tests
Procedure: (§2) To an evaluation system where Raf (B-Raf or c-Raf) and MEK (MEK1 or MEK2) were mixed, or MEK (MEK1 or MEK2) and ERK2 were mixed was added a test substance dissolved in DMSO, and an ATP solution containing [γ-32P]-ATP was added to start the enzyme reaction. After reacting at 30° C. for 20 min, the reaction mixture was subjected to SDS-PAGE (sodium dodecylsulfate-polyacrylamide gel electrophoresis) and radioactivity of phosphorylated MEK or ERK2 was measured by Bio Imaging Analyzer (BAS2000, Fuji photo film).

B-Raf and MEK2 = B-Raf and MEK2 (Homo sapiens, UniProt P36507); assay: MEK enzyme inhibitory activity, B-Raf and MEK2 system; type: biochemical; conditions: 30° C., 20 min, [γ-32P]-ATP; average of two or three tests
Procedure: as §2

c-Raf and MEK2 = c-Raf and MEK2 (Homo sapiens, UniProt P36507); assay: MEK enzyme inhibitory activity, c-Raf and MEK2 system; type: biochemical; conditions: 30° C., 20 min, [γ-32P]-ATP; average of two or three tests
Procedure: as §2

MEK1 and ERK2 = MEK1 and ERK2 (Homo sapiens, UniProt Q02750); assay: MEK enzyme inhibitory activity, MEK1 and ERK2 system; type: biochemical; conditions: 30° C., 20 min, [γ-32P]-ATP; average of two or three tests
Procedure: as §2

MEK2 and ERK2 = MEK2 and ERK2 (Homo sapiens, UniProt P36507); assay: MEK enzyme inhibitory activity, MEK2 and ERK2 system; type: biochemical; conditions: 30° C., 20 min, [γ-32P]-ATP; average of two or three tests
Procedure: as §2

[4] = tested on: mouse (DBA/1) collagen arthritis; conditions: 17 days after boost, 1 mg/kg oral once a day for 38 days; medium group 2.2; p<0.001; n=16
Procedure: Bovine type II collagen (100 μg) was resuspended with Freund's complete adjuvant and intracutaneously administered (initial immunization) to the tail head of mouse (DBA/1). Three weeks later, the same collagen was given to the tail head as boost, whereby multiple arthritis was induced. The test substance was oral administered forcibly once a day for 38 days from immediately before the initial immunization, and arthritis score after boost was calculated twice a week to examine the arthritis onset suppressing effect. For arthritis scores, the level of swelling of each of the four limbs of the mice was scored in 4 levels, and the average of the scores of four limbs was taken as the arthritis score of each individual. The test was performed with n=16.

Sequence of B-Raf and MEK1 (Q02750 whole entry): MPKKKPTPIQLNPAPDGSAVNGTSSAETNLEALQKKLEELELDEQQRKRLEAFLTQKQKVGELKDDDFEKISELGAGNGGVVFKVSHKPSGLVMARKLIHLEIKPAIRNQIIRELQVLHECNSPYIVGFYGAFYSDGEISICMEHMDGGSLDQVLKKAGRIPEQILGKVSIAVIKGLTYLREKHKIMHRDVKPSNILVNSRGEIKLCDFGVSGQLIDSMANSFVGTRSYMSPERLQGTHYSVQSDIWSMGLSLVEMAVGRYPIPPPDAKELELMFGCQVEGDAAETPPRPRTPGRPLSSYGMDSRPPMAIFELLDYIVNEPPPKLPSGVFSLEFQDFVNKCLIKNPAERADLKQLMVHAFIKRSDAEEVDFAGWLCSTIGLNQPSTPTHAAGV
Sequence of MEK1 and ERK2 (Q02750 whole entry): as above
Sequence of MEK2 and ERK2 (P36507 whole entry): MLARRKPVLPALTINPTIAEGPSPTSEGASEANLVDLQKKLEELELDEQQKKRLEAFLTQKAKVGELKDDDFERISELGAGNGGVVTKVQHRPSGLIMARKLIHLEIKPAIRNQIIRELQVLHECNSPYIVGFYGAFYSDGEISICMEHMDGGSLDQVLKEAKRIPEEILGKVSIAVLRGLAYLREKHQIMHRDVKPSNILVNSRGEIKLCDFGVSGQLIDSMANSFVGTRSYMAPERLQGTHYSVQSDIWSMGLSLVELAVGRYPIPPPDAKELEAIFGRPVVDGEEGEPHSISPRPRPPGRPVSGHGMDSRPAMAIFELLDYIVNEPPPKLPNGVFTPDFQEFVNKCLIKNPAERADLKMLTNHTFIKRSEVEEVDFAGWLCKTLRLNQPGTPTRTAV
Sequence of c-Raf and MEK2 (P36507 whole entry): as above
Sequence of B-Raf and MEK2 (P36507 whole entry): as above

IC50 [1] [nM] | IC50 [2] [nM] | SMILES | response vs control in vivo at 30 mg/kg (HT-29 cells) [%] | fold induction at 0.1 µM (p15 protein) | fold induction at up to 10 µM [3] | fold induction at 0.1 µM (p27 protein) | fold induction [3] | further results
< 10 | < 10 | CC(=O)Nc1cccc(-n2c(=O)n(C3CC3)c(=O)c3c(Nc4ccc(I)cc4F)n(C)c(=O)c(C)c32)c1 [Example 4-1, N-{3-[3-cyclopropyl-5-(2-fluoro-4-iodophenylamino)-6,8-dimethyl-2,4,7-trioxo-3,4,6,7-tetrahydro-2H-pyrido[4,3-d]pyrimidin-1-yl]-phenyl}-acetamide] | 3 | – | – | – | – | production of TNF-α or IL-6 (TNF-α or IL-6): suppressed
< 10 | < 10 | Cc1c(=O)n(C)c(Nc2ccc(I)cc2F)c2c(=O)n(C3CC3)c(=O)n(-c3ccc(S(N)(=O)=O)cc3)c12 [Example 4-104] | – | ≥ 1.5 | ≥ 1.2 | ≥ 1.5 | – | –
< 10 | < 10 | Cc1c(=O)n(C)c(Nc2ccc(I)cc2F)c2c(=O)n(C3CC3)c(=O)n(-c3cccc(NS(N)(=O)=O)c3)c12 [Example 4-54] | 11 | ≥ 1.5 | – | ≥ 1.5 | – | –
100 to 1000 | 100 to 1000 | CN(C)c1ccc(Nc2cc(=O)n(C)c3c2c(=O)n(C2CC2)c(=O)n3-c2ccccc2)cc1 [Example 1-88] | – | ≥ 1.5 | – | – | ≥ 1.2 | –
10 to 100 | < 10 | C#Cc1ccc(Nc2c3c(=O)n(C4CC4)c(=O)n(-c4cccc(NS(C)(=O)=O)c4)c3c(C)c(=O)n2C)c(F)c1 [Example 3-8] | 27 | ≥ 1.5 | – | – | – | –
10 to 100 | < 10 | C#Cc1ccc(Nc2c3c(=O)n(C4CC4)c(=O)n(-c4cccc(NC(C)=O)c4)c3c(C)c(=O)n2C)c(F)c1 [Example 4-3, N-{3-[3-cyclopropyl-5-(4-ethynyl-2-fluorophenylamino)-6,8-dimethyl-2,4,7-trioxo-3,4,6,7-tetrahydro-2H-pyrido[4,3-d]pyrimidin-1-yl]phenyl}acetamide] | – | ≥ 1.5 | ≥ 1.2 | ≥ 1.5 | – | –
< 10 | < 10 | Cn1c(=O)cc(Nc2ccc(I)cc2F)c2c(=O)n(C3CC3)c(=O)n(-c3cccc(NS(C)(=O)=O)c3)c21 [Example 1-257] | 26 | – | – | ≥ 1.5 | – | IC50 of various enzyme reaction system, B-Raf MEK1 (B-Raf and MEK1): 6 nM; IC50 of various enzyme reaction system, B-Raf MEK2 (B-Raf and MEK2): 18.8 nM; IC50 of various enzyme reaction system, c-Raf MEK2 (c-Raf and MEK2): 7.8 nM; IC50 of various enzyme reaction system, MEK1 ERK2 (MEK1 and ERK2): 1300 nM; IC50 of various enzyme reaction system, MEK2 ERK2 (MEK2 and ERK2): 1600 nM
10 to 100 | < 10 | CC(=O)Nc1cccc(-n2c(=O)n(C)c(=O)c3c(Nc4ccc(I)cc4F)n(C)c(=O)c(C)c32)c1 [Example 4-15] | 31 | ≥ 1.5 | – | ≥ 1.5 | – | –
– | 100 to 1000 | CN(C)c1ccc(Nc2cc(=O)n(C)c3c2c(=O)n(-c2ccccc2)c(=O)n3-c2ccccc2)cc1 [Example 1-7] | – | ≥ 1.5 | – | – | ≥ 1.2 | –
– | 100 to 1000 | Cc1ccccc1-n1c(=O)n(C)c(=O)c2c(Nc3ccc(N(C)C)cc3)cc(=O)n(C)c21 [Example 1-99] | – | ≥ 1.5 | – | – | ≥ 1.2 | –
– | 100 to 1000 | Cn1c(=O)cc(Nc2ccc(Br)cc2)c2c(=O)n(-c3ccccc3)c(=O)n(-c3ccccc3)c21 [Example 1-11] | – | ≥ 1.5 | – | – | ≥ 1.2 | –
100 to 1000 | 10 to 100 | Cn1c(=O)cc(Nc2ccc(Br)cc2)c2c(=O)n(C3CC3)c(=O)n(-c3ccccc3)c21 [Example 1-89] | – | ≥ 1.5 | – | ≥ 1.5 | ≥ 1.2 | –
– | 100 to 1000 | CCn1c(=O)c2c(Nc3ccc(N(C)C)cc3)cc(=O)n(C)c2n(-c2ccccc2)c1=O [Example 1-97] | – | ≥ 1.5 | – | – | ≥ 1.2 | –
10 to 100 | < 10 | Cc1c(=O)n(C)c(Nc2ccc(I)cc2F)c2c(=O)n(C3CC3)c(=O)n(-c3cccc(NC(=O)CO)c3)c12 [Example 4-82] | – | ≥ 1.5 | ≥ 1.2 | ≥ 1.5 | – | –
– | 100 to 1000 | Cc1ccccc1-n1c(=O)n(C)c(=O)c2c(Nc3ccc(Br)cc3)cc(=O)n(C)c21 [Example 1-95] | – | ≥ 1.5 | – | – | ≥ 1.2 | –
– | – | CC(=O)Nc1cccc(-n2c(=O)n(C3CC3)c(=O)c3c(Nc4ccc(I)cc4F)n(C)c(=O)c(C)c32)c1.CC(=O)O [N-{3-[3-Cyclopropyl-5-(2-fluoro-4-iodo-phenylamino)-6,8-dimethyl-2,4,7-trioxo-3,4,6,7-tetrahydro-2H-pyrido[4,3-d]pyrimidin-1-yl]-phenyl}-acetamide Acetic Acid Solvate] | – | – | – | – | – | arthritis score [4]: 0.57
< 10 | < 10 | Cc1c(=O)n(C)c(Nc2ccc(I)cc2F)c2c(=O)n(C3CC3)c(=O)n(-c3ccc4oc(=O)[nH]c4c3)c12 [Example 4-126] | – | ≥ 1.5 | ≥ 1.2 | ≥ 1.5 | – | –
< 10 | < 10 | Cc1c(=O)n(C)c(Nc2ccc(I)cc2F)c2c(=O)n(C)c(=O)n(-c3cccc(NS(C)(=O)=O)c3)c12 [Example 4-16, N-{3-[5-(2-fluoro-4-iodophenylamino)-3,6,8-trimethyl-2,4,7-trioxo-3,4,6,7-tetrahydro-2H-pyrido[4,3-d]pyrimidin-1-yl]phenyl}methanesulfonamide] | 10 | ≥ 1.5 | ≥ 1.2 | ≥ 1.5 | – | production of TNF-α or IL-6 (TNF-α or IL-6): suppressed
10 to 100 | < 10 | C#Cc1ccc(Nc2c3c(=O)n(C)c(=O)n(-c4cccc(NS(C)(=O)=O)c4)c3c(C)c(=O)n2C)c(F)c1 [Example 4-49] | 35 | ≥ 1.5 | – | ≥ 1.5 | – | –
10 to 100 | < 10 | Cc1c(=O)n(C)c(Nc2ccc(I)cc2F)c2c(=O)n(C3CC3)c(=O)n(-c3ccc(NS(C)(=O)=O)cc3)c12 [Example 4-70] | 31 | ≥ 1.5 | ≥ 1.2 | ≥ 1.5 | – | –

From patent US20180273531A1, “PYRIMIDINE COMPOUND AND MEDICAL USE THEREOF” (Japan Tobacco Inc., priority 2004, published 2018)
